What all share (format): cell-based
The subject of assay [1] is NCI's 60 human tumor cell line assay. Description: cells. Particulars: 60 cell, 48 h, read-out: IC50 (mean GI50 against NCI's 60 human tumor cell line assay).
Assay [2] relates to MCF 7. Description: NCI in vitro 60 human tumor cell line assay. To be noted: MCF7, 48 h, read-out: Total Growth Inhibition (TGI).
Method: (§1) Each test compound was screened against a battery of 60 human cell lines obtained from eight organs. In a typical procedure, the cell suspensions that were diluted according to the particular cell type and the expected target cell density (5000-40,000 cells per well based on cell growth characteristics) were added into 96-well microtiter plates. Inoculates were allowed a preincubation period of 24h at 37°C. for stabilization. Dilutions at twice the intended test concentrations were added at time zero in 100-µl aliquots to microtiter plate wells. Usually test compounds were evaluated at five 10-fold dilutions. The highest well concentration used in the test is 10^-4M. The cells are then incubated in the presence of drug (the test compound) for further 48h in 5% CO2 atmosphere and 100% humidity. At the end of this time, the adherent cells are fixed to the plate by means of trichloroacetic acid, and after a number of washes, the cell layer is treated with the protein stain Sulforhodamine B. The optical density which is proportional to protein mass, is then read by automated spectrophotometric plate readers at a wavelength of 515 nm. Readings are transferred to a microcomputer and final reports are generated using especially developed software.
The test system of assay [3] is HT 29. Description: NCI in vitro 60 human tumor cell line assay. Particulars: Homo sapiens, HT-29, 48 h, read-out: Total Growth Inhibition (TGI).
Method: as §1
Assay [4] concerns H 460. Description: NCI in vitro 60 human tumor cell line assay. To be noted: Homo sapiens, NCI-H460, 48 h, read-out: Total Growth Inhibition (TGI).
For assay [5], the system named is HCC 2998. Description: NCI in vitro 60 human tumor cell line assay. Particulars: Homo sapiens, HCC 2998, 48 h, read-out: Total Growth Inhibition (TGI).
Method: as §1
Assay [6] has as its system HOP 62. Description: NCI in vitro 60 human tumor cell line assay. Particulars: HOP-62, 48 h, read-out: Total Growth Inhibition (TGI).
Assay [7] relates to H 226. Description: NCI in vitro 60 human tumor cell line assay. Particulars: NCI-H226, 48 h, read-out: Total Growth Inhibition (TGI).
Assay [8] relates to H 23. Description: NCI in vitro 60 human tumor cell line assay. To be noted: NCI-H23, 48 h, read-out: Total Growth Inhibition (TGI).
Assay [9] concerns COLO 205. Description: NCI in vitro 60 human tumor cell line assay. To be noted: COLO 205, 48 h, read-out: Total Growth Inhibition (TGI).
Method: as §1
Assay [10] concerns KM 12. Description: NCI in vitro 60 human tumor cell line assay. To be noted: KM12, 48 h, read-out: Total Growth Inhibition (TGI).
Assay [11] can be described thus: NCI in vitro 60 human tumor cell line assay. Particulars: 48 h, read-out: Total Growth Inhibition (TGI).
Method: as §1
Assay [12] deals with MCF7 / ADR / RES. Description: NCI in vitro 60 human tumor cell line assay. Particulars: 48 h, read-out: Total Growth Inhibition (TGI).
Method: as §1

One compound from patent EP0847397B1, “WATER-SOLUBLE C-RING ANALOGUES OF 20 (S)-CAMPTOTHECIN” (DR. REDDY'S RESEARCH FOUNDATION, priority 1996, dated 1997) can be followed below.

On to `CC[C@@]1(O)C(=O)OCc2c1cc1n(c2=O)C(OCCOC)c2cc3ccccc3nc2-1` (stereo partly drawn) [Example 43, 5-(2'-methoxyethoxy)camptothecin], for which the mean GI50 in assay [1] amounted to 2.23 µM. For the same compound, the IC (TGI) in [2] amounted to 17.8 µM; in assay [3], 18.9 µM; in [4], 14.2 µM; in assay [5], 23.2 µM; in [6] it was 3.92 µM; in assay [7], 6.89 µM. The IC (TGI) in [8] was found to be 2.52 µM; in assay [9], 37.3 µM; in [10], 41.9 µM; in assay [11] it was 23.6 µM; in assay [12], 9.3 µM.
